{
  "source": "paper PMC6389703",
  "about": "“Identification of Biologically Active Ganoderma lucidum Compounds and Synthesis of Improved Derivatives That Confer Anti-cancer Activities in vitro” (Frontiers in Pharmacology, 2019)",
  "key": {"MDA-MB-231 cells [1]": {"test_system": "MDA-MB-231 cells", "test": "ROS measurement (CellROX green), MDA-MB-231", "assay_type": "cell-based, human", "settings": "EP 20 μM, 1 h", "method": "SUM-149 or MDA-MB-231 were plated in 96-well plates at a density of 2 × 10^4 and 1 × 10^4 cells/well, respectively, in black 96-well clear bottom tissue culture plates and incubated for 24 h at 37°C. The mRuby-Mito-7 plasmid was obtained from Addgene (#55874 from Michael Davidson). A stable clone of MCF-7 was generated by using Fugene 6 (Roche) to transfect cells (2 × 10^5) with plasmid (2.0 μg) under neomycin selection. A stable cell line was selected by using G418 (300 μg/mL) for 2 weeks, sorted by flow cytometry, and maintained under G418 thereafter. Transfected MCF-7 cells were plated at a density of 2 × 10^4 cells/well in black 96-well clear bottom tissue culture plates and incubated overnight at 37°C. To test for ROS formation and remove background, cells were replenished with fresh PBS with 2% FBS and treated with the desired compounds for 1 h at 37°C. DMSO (0.5%) was used as a negative control, while Menadione (Mena, at 10 μM) or t-Butyl hydroperoxide (TBHP) at 100 μM final concentration were used as a positive control. To evaluate the compounds’ effects on ROS formation inhibition, the free radical scavenger N-acetyl cysteine (NAC) was used. […] Fluorescence intensity was measured in a Clariostar® plate reader (BMG LABTECH, Cary, NC, United States) at 535 nm."}, "MDA-MB-231 cells [2]": {"test_system": "MDA-MB-231 cells", "test": "Cell viability assay, MDA-MB-231", "assay_type": "cell-based", "settings": "Homo sapiens, Figure 4E", "method": "Either 1 × 10^3–4.8 × 10^3 or 4 × 10^2–1.2 × 10^3 cells were seeded to each well of 96- or 384-well white polystyrene flat-bottomed plates (3610 or 8804BC, Corning) in 100 μL or 30 μL media per well, respectively. The concentrations used were experimentally determined to ensure logarithmic growth during the duration of the experiment and prevent adverse effects on cell growth by DMSO exposure. The plates were incubated at 37°C in 5% CO2 for 24 h before treatment. Stock solutions of test compounds (10 mM in DMSO) in nine 3-fold serial dilutions were dispensed via pintool (Biomek). The final concentration of DMSO was 0.3% (v/v) in each well. […] Luminescence was recorded in an Envision plate reader (PerkinElmer). […]\nFor the CTG assay, 3 or 4 replicate assays were conducted for each experimental condition, and a minimum of 3 independent experiments were conducted for cellular assays. The mean luminescence of each experimental treatment group was normalized as a percentage of the mean intensity of untreated controls. EC50 values (μM) were calculated by Pipeline Pilot Software (Accelrys, Enterprise Platform, San Diego, CA, United States). EC50 values (μM) from the viability assay were calculated from dose response curve-fitting via non-linear regression by using GraphPad Prism (Version 7.0, San Diego, CA, United States). […]"}, "SUM-149 cells [3]": {"test_system": "SUM-149 cells", "test": "Annexin V/7-AAD apoptosis detection", "assay_type": "cell-based, human", "settings": "48 h", "method": "SUM-149 cells (5 × 10^5) were seeded and treated either with vehicle (0.1% DMSO) or with 20 μM of EP or with puromycin (200 ng/mL) as positive control for 48 h. After treatment floating cells were collected, and all cells were harvested and counted. Treated cells were analyzed for cell death by using the FITC Annexin-V/7AAD Apoptosis detection kit (product #640922, Biolegend, San Diego, CA, United States) according to the manufacturer’s instructions. Briefly, cells were resuspended in Annexin Binding Buffer, stained with Annexin V-FITC and/or 7-AAD, and incubated for 30 min at 4°C. Data were acquired on a BD FACS Canto II cytometer (BD Biosciences, San José, CA, United States) and analyzed by using FlowJo software (V10, FlowJo, LLC, Ashland, OR, United States)."}, "[4]": {"test_system": "AKT isoforms, BCL-XL, Cyclin D1, c-Myc, PARP in SUM-149 cells", "test": "Immunoblots of signaling proteins", "assay_type": "cell-based, human", "source_text": "Breast cancer cells treated with vehicle or EP were lysed, and equal total protein was resolved via SDS-PAGE and immunoblotted with indicated antibodies (Cell Signaling Technologies, Abcam, Sigma) as described previously ([Castillo-Pichardo et al., 2009]; [Martinez-Montemayor et al., 2011]; [Suarez-Arroyo et al., 2016])."}, "SUM-149 cells [5]": {"test_system": "SUM-149 cells", "test": "Cell viability assay, SUM-149", "assay_type": "cell-based, human", "settings": "for EC50: Homo sapiens, read-out: EC50, SUM-149 cell viability", "method": "Either 1 × 10^3–4.8 × 10^3 or 4 × 10^2–1.2 × 10^3 cells were seeded to each well of 96- or 384-well white polystyrene flat-bottomed plates (3610 or 8804BC, Corning) in 100 μL or 30 μL media per well, respectively. The concentrations used were experimentally determined to ensure logarithmic growth during the duration of the experiment and prevent adverse effects on cell growth by DMSO exposure. The plates were incubated at 37°C in 5% CO2 for 24 h before treatment. Stock solutions of test compounds (10 mM in DMSO) in nine 3-fold serial dilutions were dispensed via pintool (Biomek). The final concentration of DMSO was 0.3% (v/v) in each well. The plates were incubated for 72 h at 37°C in 5% CO2 and then quenched with CellTiter-Glo® reagent (50 μL/well in 96-well plate, 30 μL/well in 384-well plate) at RT. The positive controls included staurosporine (10 μM), gambogic acid (10 μM), and a toxic quinoline generated in-house. Plates were then incubated at RT for 20 min and centrifuged at 1000 rpm for 1 min. The cytotoxicity assay was performed by using the CellTiter-Glo® Luminescent Cell Viability Assay kit (G7570, Promega, Madison, WI, United States) according to the manufacturer’s instructions. Luminescence was recorded in an Envision plate reader (PerkinElmer).\nCell viability assays (MTT or PI staining assays) in SUM-149, SUM-190, MDA-MB-231, and MCF10A cells were performed as we previously described ([Suarez-Arroyo et al., 2016]).\nFor the CTG assay, 3 or 4 replicate assays were conducted for each experimental condition, and a minimum of 3 independent experiments were conducted for cellular assays. The mean luminescence of each experimental treatment group was normalized as a percentage of the mean intensity of untreated controls. EC50 values (μM) were calculated by Pipeline Pilot Software (Accelrys, Enterprise Platform, San Diego, CA, United States). EC50 values (μM) from the viability assay were calculated from dose response curve-fitting via non-linear regression by using GraphPad Prism (Version 7.0, San Diego, CA, United States). For cell viability, colony formation, cell-cycle progression, cell death, and western blot assays, the analyses were performed via one-way or two-way ANOVA with post-testing for each condition (concentration, cell cycle stage, apoptotic event, cell line) by using GraphPad Prism."}},
  "note": "Read-outs that look alike come from different tables or passages of the source.",
  "data": [
    {"smiles": "CC(C)[C@@H](C)/C=C/[C@@H](C)[C@H]1CC[C@@H]2[C@]1(C)CC[C@H]1[C@]23C=C[C@]2(C[C@@H](O)CC[C@]12C)OO3", "note": "[EP, ergosterol peroxide]", "values": [
      {"measurement": "ROS formation (fold)", "setting": "MDA-MB-231 cells [1]", "result": "twofold"},
      {"measurement": "EC50", "setting": "MDA-MB-231 cells [2]", "result": 19, "unit": "µM"},
      {"measurement": "Early apoptotic cells", "setting": "SUM-149 cells [3]; 20μM", "result": 50.1, "unit": "%"},
      {"measurement": "Late apoptotic cells", "setting": "SUM-149 cells [3]; 20μM", "result": 3.2, "unit": "%"},
      {"measurement": "Live cells", "setting": "SUM-149 cells [3]; 20μM", "result": 45.9, "unit": "%"},
      {"measurement": "decrease of live cells (Annexin-, 7AAD-)", "setting": "SUM-149 cells [3]; vs vehicle", "result": "~15", "unit": "%"},
      {"measurement": "AKT3 levels", "setting": "[4]; SUM-149", "result": "not affecting AKT3 levels"},
      {"measurement": "p-AKT2", "setting": "[4]; SUM-149", "result": "without affecting p-AKT2"},
      {"measurement": "PARP cleavage", "setting": "[4]; SUM-149, 30 μM, 24 h", "result": "induces PARP cleavage"},
      {"measurement": "total PARP levels", "setting": "[4]; SUM-149, 30 μM, 24 h", "result": "significantly reduces total PARP levels"},
      {"measurement": "AKT2 levels", "setting": "[4]; SUM-149, 72 h", "result": "decreases"},
      {"measurement": "expression of BCL-XL", "setting": "[4]; SUM-149, 72 h", "result": "significantly reduces"},
      {"measurement": "expression of Cyclin D1", "setting": "[4]; SUM-149, 72 h", "result": "significantly reduces"},
      {"measurement": "expression of c-Myc", "setting": "[4]; SUM-149, 72 h", "result": "significantly reduces"},
      {"measurement": "expression of p-AKT1 (Ser 473)", "setting": "[4]; SUM-149, 72 h", "result": "significantly decreases"},
      {"measurement": "total AKT1 levels", "setting": "[4]; SUM-149, 72 h", "result": "decreases total AKT1"},
      {"measurement": "concentration at which SUM-149 cell viability is significantly reduced", "setting": "SUM-149 cells [5]; 72 h", "result": 8, "unit": "µM"},
      {"measurement": "EC50", "setting": "SUM-149 cells [5]; SUM149, 24 h", "result": 34, "unit": "µM"},
      {"measurement": "EC50", "setting": "SUM-149 cells [5]; SUM149, 72 h", "result": 20, "unit": "µM"}
    ]}
  ]
}
